Experimental data: patent US11339193B2, “CDP protein secretion inhibitors” (KEZAR LIFE SCIENCES, priority 2018, dated 2022)
Where two headings read alike, the source gives them in different places. Numbered stars: 1 amine (or outer) side, 2 acyl side, 3 side chain; on linkers, the order of the positions; unused ones are H or OH. Square brackets hold non-standard residues; d marks the D form. Peptide text beside a SMILES is read from it. NMeAla(5-Cl-benzothien-3-yl) = CN[C@@H](Cc1csc2ccc(Cl)cc12)C(=O)O; X19 = CN([C@@H](Cc1cn(Cc2ccc(Cl)cc2)c2ccccc12)C(=O)[*:2])[*:1]; X18 = Cc1ccc(Cn2cc(C[C@@H](C(=O)[*:2])N(C)[*:1])c3ccccc32)cc1; Ala(1-cyclohexenyl) = N[C@@H](CC1=CCCCC1)C(=O)O; Butanoyl(2R-oxy,4-CN) = N#CCC[C@@H](O)C(=O)O; Abu(4,4,4-F3) = N[C@@H](CC(F)(F)F)C(=O)O; X12 = O=C([C@H](CC1=CCCC1)N[*:1])[*:2]; NMeL = CN[C@@H](CC(C)C)C(=O)O; NMeA = CN[C@@H](C)C(=O)O

What was measured:
Type in all cases: cell-based
HER3ss-Gluc = assay: HER3ss assay
Experimental: The mature domain of secreted luciferase from Gaussia princeps (GLuc) was cloned into pcDNA5/FRT/TO. The signal sequence plus four amino acids of the mature domain from HER3 ([…]) (SEQ ID NO:8) were cloned upstream of GLuc mature domain and used in transient transfection experiment. HEK-293T T-rex cells were cultured in Dulbecco's modified Eagle's medium with 10% FBS at 5% CO2. Cells were plated 1×10e6 cells per well in a 6-well plate and incubated for 6 h. Cells were transiently transfected with HER3ss-Gluc using Lipofectamine 2000 (Invitrogen). After overnight incubation, transfected cells were replated in a clear-bottomed, black 96-well plate at a density of 20,000 cells per well. Six hours after plating, the cells were treated with doxycycline (1 μg/ml) and increasing concentrations of the indicated compounds for 24 h. Secreted luciferase in the conditioned media was quantified by luminescence using the BioLux Gaussia Luciferase Assay Kit (New England Biolabs, Ipswich, Mass., USA) and a SpectraMax M5 plate reader (Molecular Devices).

[1] = test system: U266B1 multiple myeloma cell line; assay: U266 assay (cell viability, Celltiter-Glo); conditions: Homo sapiens, U-266
Experimental: Cells were plated in 384-well tissue culture plates and treated with compound dilutions in DMSO/media. Plates were incubated at 37° C., 5% CO2 for 48 hours. After 48 hours, Celltiter-Glo@ (Promega) was added to each well and luciferase signal was quantified using Tecan Infinite M1000 Pro for cell viability determination.

[2] = test system: PD1-ss+10aa/Gaussia Luciferase; assay: Dox induced PD1-ss-Gluc assay
Description: Dox Induced PD1-ss-Gluc Assay
(§1) Flp-In 293 T-REx™ cells were transfected with pcDNA™5/FRT/TO plasmid inserted with cDNA encoding Gaussia Luciferase fused to the 3′ end of cDNA encoding PD1 signal sequence plus 10 amino acids (N-[…]-C) (SEQ ID NO:3). Transfected cells were selected for resistance to the selectable markers Hygromycin and Blasticidin to create a stable cell line that contained the PD1-ss+10aa/Gaussia Luciferase cDNA insert whose expression was regulated under the T-REx™ system. The day before assay, cells were trypsinized and plated in 384-well tissue culture plates. The next day, compound dilutions in DMSO/media containing doxycycline were added to the wells and incubated at 37° C., 5% CO2.

[3] = test system: NCI-H929 multiple myeloma cell line; assay: H929 assay (cell viability, Celltiter-Glo); conditions: Homo sapiens, read-out: H929 EC50
Experimental: The human multiple myeloma cell line NCI-H929 was cultured in Advanced RPMI 1640 media (Gibco@) supplemented with 6% fetal bovine serum, 2 mM Glutamine, and 1× Penicillin/Streptomycin. On the day of assay, cells were resuspended in RPMI 1640 media supplemented with 10% fetal bovine serum, 2 mM Glutamine, and 1× Penicillin/Streptmycin and plated in 384-well tissue culture plates and treated with compound dilutions in DMSO/media. Plates were incubated at 37° C., 5% CO2 for 48 hours. After 48 hours, Celltiter-Glo@ (Promega) was added to each well and luciferase signal was quantified using Tecan Infinite M1000 Pro for cell viability determination.

[4] = test system: Prl-ss+10aa/Gaussia Luciferase; assay: Prl-ss-Gluc assay (constitutively active or 24 hr Dox inducible)
Description: Constitutively Active Prl-ss-Gluc Assay
Flp-In 293 T-REx™ cells were transfected with pcDNA™5/FRT plasmid inserted with cDNA encoding Gaussia Luciferase fused to the 3′ end of cDNA encoding Prl signal sequence plus 10 amino acids (N-[…]-C) (SEQ ID NO:4). Transfected cells were selected for resistance to the selectable markers Hygromycin and Blasticidin to create a stable cell line that constitutively expressed the Prlss+10aa/Gaussia Luciferase fusion protein. The day before assay, cells were trypsinized and plated in 384-well tissue culture plates. The next day, culture media was removed from the wells and replaced with fresh media. Compound dilutions in DMSO/media were added to the wells and incubated at 37° C., 5% CO2.
24 hr Dox Inducible Prl-ss-Gluc Assay
as §1, with “Prl” for “PD1”, “NO:5).” for “NO:3).”, “Prl-ss+10aa/Gaussia” for “PD1-ss+10aa/Gaussia”

[5] = test system: TNFα-FL/Gaussia Luciferase; assay: Dox induced TNFα-FL-Gluc assay
Description: Dox Induced TNFα-FL-Gluc Assay
Flp-In 293 T-REx™ cells were transfected with pcDNA™5/FRT/TO plasmid inserted with cDNA encoding Gaussia Luciferase fused to the 3′ end of cDNA encoding full length TNFα (amino acids 1-233). Transfected cells were selected for resistance to the selectable markers Hygromycin and Blasticidin to create a stable cell line that contained the TNFα-FL/Gaussia Luciferase cDNA insert whose expression was regulated under the T-REx™ system. The day before assay, cells were trypsinized and plated in 384-well tissue culture plates. The next day, compound dilutions in DMSO/media containing doxycycline were added to the wells and incubated at 37° C., 5% CO2.

[6] = HEK-293T T-rex cells, transient transfection, doxycycline, 24 h; read-out: HER3 ss IC50
[7] = Flp-In 293 T-REx cells, doxycycline, 24 hours; read-out: PD1ss Gluc IC50
[8] = NCI-H929, 48 hours, cell viability
[9] = Flp-In 293 T-REx cells, doxycycline, 24 hours; read-out: TNFa FL Gluc IC50
[10] = I.A.; read-out: TNFa FL Gluc IC50
[11] = Flp-In 293 T-REx cells, 24 hours; read-out: Prl IC50

Compound	IC50 (HER3ss-Gluc; [6])	EC50 ([1]; I.A.)	IC50 [2, 7]	EC50 [3, 8]	IC50 ([4]; I.A.; read-out: Prl IC50)	IC50 [5, 9]	EC50 ([3]; NCI-H929, I.A.)	IC50 [5, 10]	IC50 (HER3ss-Gluc; read-out: HER3 ss IC50; HEK-293T T-rex cells, transient transfection, doxycycline, 24 h)	IC50 ([2]; read-out: PD1ss Gluc IC50; Flp-In 293 T-REx cells, doxycycline, 24 hours)	EC50 ([3]; NCI-H929, 48 h)	IC50 ([4]; read-out: Prl IC50; Flp-In 293 T-REx cells, 24 hours)	IC50 ([5]; read-out: TNFa FL Gluc IC50; Flp-In 293 T-REx cells, doxycycline, 24 hours)	EC50 ([1]; 48 hours, cell viability)	IC50 [4, 11]	EC50 ([3]; NCI-H929, 48 hours, cell viability, μM)
CC(C)C[C@@H]1NC(=O)[C@H](CC(C)C)N(C)C(=O)[C@H](CC(F)(F)F)NC(=O)[C@@H](CCC#N)OC(=O)[C@H](C)N(C)C(=O)[C@H](CC2=CCCC2)NC(=O)[C@H](Cc2csc3ccc(Cl)cc23)N(C)C1=O [C-89] (cyclo(L[NMeAla(5-Cl-benzothien-3-yl)][X12][NMeA][Butanoyl(2R-oxy,4-CN)][Abu(4,4,4-F3)][NMeL]))	33 nM	> 25000 nM	172 nM	3.73 µM	> 25000 nM	879 nM										
CC(C)C[C@@H]1NC(=O)[C@H](Cc2csc3ccc(Cl)cc23)N(C)C(=O)[C@H](CC2=CCCCC2)NC(=O)[C@H](CC(C)C)N(C)C(=O)[C@H](CC2=CCCC2)NC(=O)[C@@H](CCC#N)OC(=O)[C@H](C)N(C)C1=O [C-85] (cyclo(L[NMeA][Butanoyl(2R-oxy,4-CN)][X12][NMeL][Ala(1-cyclohexenyl)][NMeAla(5-Cl-benzothien-3-yl)]))	7 nM	> 25000 nM	1140 nM		> 25000 nM		> 25 µM	> 25000 nM								
CC(C)C[C@@H]1NC(=O)[C@H](Cc2cn(Cc3ccc(Cl)cc3)c3ccccc23)N(C)C(=O)[C@H](CC(C)C)NC(=O)[C@H](CC(C)C)N(C)C(=O)[C@H](CC(F)(F)F)NC(=O)[C@@H](CCC#N)OC(=O)[C@H](C)N(C)C1=O [C-95] (cyclo(L[NMeA][Butanoyl(2R-oxy,4-CN)][Abu(4,4,4-F3)][NMeL]L[X19]))		> 25000 nM							35 nM	19 nM	0.588 µM	391 nM	93 nM			
CC(C)C[C@@H]1NC(=O)[C@H](Cc2csc3ccc(Cl)cc23)N(C)C(=O)[C@H](CC(C)C)NC(=O)[C@H](CC(C)C)N(C)C(=O)[C@H](CC(C)C)NC(=O)[C@@H](CCC#N)OC(=O)[C@H](C)N(C)C1=O [C-93] (HELM PEPTIDE1{L.[meA].[N#CCC[C@@H](O[*:1])C(=O)[*:2]].L.[meL].L.[CN([C@@H](Cc1csc2ccc(Cl)cc12)C(=O)[*:2])[*:1]]}$PEPTIDE1,PEPTIDE1,1:R1-7:R2$$$V2.0)	38 nM		278 nM	3.39 µM		672 nM								16200 nM	5700 nM	
Cc1ccc(Cn2cc(C[C@H]3C(=O)N[C@@H](CC(C)C)C(=O)N(C)[C@@H](C)C(=O)O[C@H](CCC#N)C(=O)N[C@@H](CC(F)(F)F)C(=O)N(C)[C@@H](CC(C)C)C(=O)N[C@@H](CC(F)(F)F)C(=O)N3C)c3ccccc32)cc1 [C-83] (cyclo(L[NMeA][Butanoyl(2R-oxy,4-CN)][Abu(4,4,4-F3)][NMeL][Abu(4,4,4-F3)][X18]))	81 nM	> 25000 nM	42 nM	0.603 µM		103 nM									1090 nM	
CC(C)C[C@@H]1NC(=O)[C@H](Cc2csc3ccc(Cl)cc23)N(C)C(=O)[C@H](CC2=CCCCC2)NC(=O)[C@H](CC(C)C)N(C)C(=O)[C@H](CC(F)(F)F)NC(=O)[C@@H](CCC#N)OC(=O)[C@H](C)N(C)C1=O [C-97] (cyclo(L[NMeA][Butanoyl(2R-oxy,4-CN)][Abu(4,4,4-F3)][NMeL][Ala(1-cyclohexenyl)][NMeAla(5-Cl-benzothien-3-yl)]))	6 nM	> 25000 nM	709 nM		> 25000 nM			> 25000 nM								> 20 µM
